In ChEMBL document CHEMBL3507680, “University of Dundee, Gates Library screen for HepG2 cell viability”:

Assay: Human HepG2 cell viability assay in 384 well format
Assay type: toxicity, cell-based
Set-up: dose 125 nL, time 70.5 hour; cytotoxicity at 70.5 h: concentration not given beside the values
Conditions: HepG2 cells, read-out: Inhibition

Question: Which cytotoxicity at 70.5 h does the source give for `O=C(c1cccs1)N1CC[C@@H]2[C@H]1CCC(=O)N2c1ccccc1` here?
Answer: -16.9%

Question: With `CC(=O)NCC(=O)N1CCN(Cc2cccnc2)c2ncccc2C1` as the compound, how does the cytotoxicity at 70.5 h read?
Answer: -15.1%

Question: Which cytotoxicity at 70.5 h does the source give for `CC(=O)NCC(=O)N1CCN(Cc2ccncc2)c2ncccc2C1` here?
Answer: 16.8%

Question: For `c1cc(CN2CCOCC3(CCNCC3)C2)ccn1`, which cytotoxicity at 70.5 h is on record?
Answer: 23%

Question: With `CCS(=O)(=O)NC1CCc2c(ccc(=O)n2CC2CC2)C1` (configuration not stated) as the compound, how does the cytotoxicity at 70.5 h read?
Answer: -7.75%

Question: For `COCC(=O)N1CCCC2(CCN(c3cncnc3)C2=O)C1` (configuration not stated), which cytotoxicity at 70.5 h is on record?
Answer: -8.34%

Question: With `Cc1occc1C(=O)N1CCCC2(CCN(c3ccsc3)C2=O)C1` (configuration not stated) as the compound, how does the cytotoxicity at 70.5 h read?
Answer: -6.53%

Question: For `COCC(=O)N1CCCC2(CCN(c3ccccc3)C2=O)C1` (configuration not stated), which cytotoxicity at 70.5 h is on record?
Answer: -13.1%

Question: Which cytotoxicity at 70.5 h does the source give for `COCCC(=O)N1CCC2(CN(Cc3cccc(F)c3)C2)C1` here?
Answer: -7.85%

Question: With `CN1CCN([C@H]2COC[C@@H]3CN(Cc4cccnc4)C[C@@H]32)CC1` as the compound, how does the cytotoxicity at 70.5 h read?
Answer: -8.25%

Question: For `CCS(=O)(=O)NCC1Cn2nnc(-c3ccccc3)c2CO1` (configuration not stated), which cytotoxicity at 70.5 h is on record?
Answer: -1.57%

Question: Which cytotoxicity at 70.5 h does the source give for `c1cnc(NCC2Cn3nnc(-c4ccsc4)c3CO2)nc1` (configuration not stated) here?
Answer: -8.81%

Question: Which cytotoxicity at 70.5 h does the source give for `c1cnc(NCC2Cn3nnc(-c4ccoc4)c3CO2)nc1` (configuration not stated) here?
Answer: -13.1%

Question: With `O=C(CO)N1CCCC2(CCN(c3ccsc3)C2=O)C1` (configuration not stated) as the compound, how does the cytotoxicity at 70.5 h read?
Answer: -8.82%

Question: With `Cc1ccc2c(n1)N(CCN(C)C)CCN(C(=O)c1ccco1)C2` as the compound, how does the cytotoxicity at 70.5 h read?
Answer: -4.83%

Question: For `CCS(=O)(=O)N1CCn2cc(CN(C)Cc3ccco3)nc2C1`, which cytotoxicity at 70.5 h is on record?
Answer: -2.7%

Question: With `COCCC(=O)N1CC2(CCN(Cc3ccncc3)CC2)C1` as the compound, how does the cytotoxicity at 70.5 h read?
Answer: -1.69%

Question: With `Cc1occc1C(=O)N1C[C@H](Oc2ccccn2)[C@H]2OCCC[C@H]21` as the compound, how does the cytotoxicity at 70.5 h read?
Answer: -10.8%

Question: Which cytotoxicity at 70.5 h does the source give for `Cc1ccc(C(=O)N2CC[C@H]3[C@@H]2CCC(=O)N3c2ccccc2)cn1` here?
Answer: -12.4%

Question: With `O=C(NCC1CC1)[C@H]1CN(Cc2nccs2)C[C@H]2OCC[C@@H]12` as the compound, how does the cytotoxicity at 70.5 h read?
Answer: -9.38%

Question: Which cytotoxicity at 70.5 h does the source give for `Cc1occc1C(=O)N1CCO[C@H]2[C@H](OCc3ccccn3)CC[C@@H]21` here?
Answer: -7.78%

Question: For `O=C([C@@H]1CN(Cc2nccs2)C[C@H]2OCC[C@H]21)N1CCOCC1`, which cytotoxicity at 70.5 h is on record?
Answer: -7.1%

Question: For `Cc1ncsc1CN1C[C@@H]2COC[C@]2(C(=O)NC(C)C)C1`, which cytotoxicity at 70.5 h is on record?
Answer: -11.1%

Question: With `O=C(c1cscn1)N1CCO[C@H]2[C@@H](Oc3ccccn3)CC[C@@H]21` as the compound, how does the cytotoxicity at 70.5 h read?
Answer: -10.4%

Question: Which cytotoxicity at 70.5 h does the source give for `Fc1ccc(N2CCOC3(COCCN(c4ncccn4)C3)C2)cc1` (configuration not stated) here?
Answer: -6.83%

Question: Which cytotoxicity at 70.5 h does the source give for `O=C(c1ccoc1)N1CCOC2(COCCN(c3ncccn3)C2)C1` (configuration not stated) here?
Answer: -7.67%

Question: Which cytotoxicity at 70.5 h does the source give for `O=C(NC1CC1)[C@@H]1C[C@@H]2CCN(Cc3ccccc3)C[C@@H]2O1` here?
Answer: 25.4%

Question: With `CC(C)NC1CCc2c(ccc(=O)n2CC2CC2)C1` (configuration not stated) as the compound, how does the cytotoxicity at 70.5 h read?
Answer: 4.51%

Question: Which cytotoxicity at 70.5 h does the source give for `Cc1ncsc1CN1C[C@@H]2COC[C@]2(CNC(=O)c2ccco2)C1` here?
Answer: -10.4%

Question: For `O=C(NC1CC1)[C@@H]1C[C@@H]2CCN(Cc3ccccc3)C[C@H]2O1`, which cytotoxicity at 70.5 h is on record?
Answer: -9.32%

Question: With `Cn1nnc2c1CCN(Cc1ccccn1)C2COCc1ccccc1` (configuration not stated) as the compound, how does the cytotoxicity at 70.5 h read?
Answer: 14.7%

Question: With `O=C([C@H]1CN(Cc2nccs2)C[C@H]2OCC[C@@H]12)N1CCCCO1` as the compound, how does the cytotoxicity at 70.5 h read?
Answer: -10.9%

Question: For `CN(Cc1cn2c(n1)CN(C1CCOCC1)CC2)Cc1ccco1`, which cytotoxicity at 70.5 h is on record?
Answer: 24.6%

Question: Which cytotoxicity at 70.5 h does the source give for `CN(Cc1cn2c(n1)CN(Cc1ccsc1)CC2)Cc1ccco1` here?
Answer: -6.14%

Question: With `Cc1ccc2c(n1)N(CCN(C)C)CCN(C(=O)c1cccs1)C2` as the compound, how does the cytotoxicity at 70.5 h read?
Answer: -5.81%

Question: Which cytotoxicity at 70.5 h does the source give for `Fc1cccc(N2CCCC3(CN(Cc4nccs4)CCO3)C2)c1` (configuration not stated) here?
Answer: -13.6%

Question: With `O=C(C1CCOC1)N1CCC2(CC1)COCCN(Cc1ccncc1)C2` (configuration not stated) as the compound, how does the cytotoxicity at 70.5 h read?
Answer: -11.2%

Question: Which cytotoxicity at 70.5 h does the source give for `CN(Cc1cn2c(n1)CN(Cc1nccs1)CC2)Cc1ccco1` here?
Answer: -7.68%

Question: Which cytotoxicity at 70.5 h does the source give for `CN(Cc1cn2c(n1)CN(CC1CCOC1)CC2)Cc1ccco1` (configuration not stated) here?
Answer: 1.38%

Question: Which cytotoxicity at 70.5 h does the source give for `CN(C)C(=O)CN1CC[C@@H]2O[C@@H](COCc3cccnc3)CC[C@@H]21` here?
Answer: -1.43%

Question: Which cytotoxicity at 70.5 h does the source give for `COc1ccc(CN2C[C@@H]3COC[C@H](N4CCN(C)CC4)[C@@H]3C2)cc1` here?
Answer: -5.19%

Question: Which cytotoxicity at 70.5 h does the source give for `c1cc(CN2CCOCC3(CCN(CC4CCOCC4)CC3)C2)ccn1` here?
Answer: -7.05%
